Row | Structure (SMILES) | melting point [°C]
1 | CCOc1cc(C(=CC#N)c2ccc3c(c2)nnn3C)ccc1OC | 180 to 182
2 | CCOC(=O)c1ncc(-c2cccs2)s1 | 68 to 69
3 | O=C1CCC(Nc2nccc(-n3ncc4ccccc43)n2)CC1 | 212 to 213
4 | CCOC(=O)c1c(C)nc(-c2ccccc2)nc1-c1cc([N+](=O)[O-])ccc1SC | 125 to 126
5 | O=C1Nc2ccccc2SC(c2ccccc2)C1CO (stereo unspecified) | 248
6 | COC(=O)CC(c1ccccc1)N1C(=O)c2ccccc2C1=O (stereo unspecified) | 75 to 76
7 | CC(C)=CCOC1=CC(=O)c2ccccc2C1=O | 60
8 | Cc1cc(N)cc(C)c1O | 135 to 137
9 | CCCCCCCCOC(=O)N(C[C@H](O)[C@@H](O)[C@H](O)[C@H](O)CO)C(C)CC (stereo partly specified) | 101
10 | CCOC(=O)c1ncn2c1CN=C(c1ccccc1F)c1cc([N+](=O)[O-])ccc1-2 | 228 to 231
11 | CC(=O)N1CCc2[nH]cc3c(=O)n(-c4ccc(Cl)cc4)nc-3c2C1 | > 350
12 | OCc1ccc2c(c1)ncn2-c1cccc(COCc2ccccn2)c1 | 101 to 103
13 | CO[C@@H]1CNCC[C@@H]1NC(=O)c1cc(Cl)c(N)c2c1OC(C)(C)C2 (relative stereo) | 179
14 | CC(C)(C)c1csc(-c2cc3cc(O)ccc3o2)n1 | 179 to 180
15 | CCOc1ccc2[nH]c(=O)sc2c1 | 147
16 | O=C(O)[C@@H]1CN(C(=O)N(c2ccccc2)c2cccc(Cl)c2)CCN1C(=O)N(c1ccccc1)c1cccc(Cl)c1 | 200 to 203
17 | N#Cc1ccc2ccnc(N)c2c1 | 183 to 186
18 | CCOC(=O)c1c2c3c(cccc3n1C)CCC2 | 80 to 81
19 | O=C1CCCc2ncc(Cl)cc21 | 84 to 86
20 | Cc1ccc(CN2CCC(c3cc(-c4ccc(Cl)cc4)[nH]n3)CC2)cc1 | 181 to 183
21 | COc1ccc2[nH]c(CC(C)C)c(C=O)c2c1 | 146 to 147
22 | COC(=O)c1cc(-c2ncnc(C(F)F)c2Cl)c(F)cc1Cl | 100 to 101
23 | CSC(Cc1ccc2oc(Cc3nc(-c4ccccc4)oc3C)cc2c1)C(=O)O (stereo unspecified) | 178 to 179
24 | CCC(C)(C)N1C(=O)C2(COc3cc4c(cc32)OCCO4)c2ccccc21 (stereo unspecified) | 111 to 113

Row | Structure (SMILES) | melting point [°C]
25 | CN1CCC(=C(c2ccn(C)c2)c2ncc[nH]2)CC1 | 155
26 | CC1(C)C=C(c2ccccc2)c2cccc3c2N1C(=O)C3=O | 210 to 212
27 | CC[C@@H]1CN(c2c(F)c(N)c3c(=O)c(C(=O)O)cn(C4CC4)c3c2F)C[C@H]1N (relative stereo) | 195 to 196
28 | C[C@@H](NC(=O)C1(C)CC1)c1ccc2ccccc2c1 | 91
29 | CN(C)CCCOc1ccc(-c2nn(CC(=O)OCc3ccccc3)c3ncccc23)cc1 | 90 to 92
30 | COc1cc(C(=O)OCC2(N(C)C)CCSc3ccccc32)cc(OC)c1OC (stereo unspecified) | 146 to 148
31 | CC(Oc1ccc(Oc2ncc(C(F)(F)F)cc2F)cc1)C(=O)Nc1ccc(C(F)(F)F)cc1 (stereo unspecified) | 127 to 128
32 | CCCCn1c(COCC)nc2c(N)nc3ccc(-c4cccnc4)cc3c21 | 220 to 222
33 | Nc1ncccc1-c1nc2ccc(-c3cccnc3)nc2n1-c1ccc(CC(=O)Nc2ccccc2)cc1 | 162 to 164
34 | O=C(c1ccccc1C(c1ccc(O)cc1)c1ccc(O)cc1)N1CCSCC1 | 259 to 261
35 | Cn1ccc(-c2nnc(Cc3ccc(F)cc3)o2)c(O)c1=O | 216 to 218
36 | CCC(=O)Nc1cccc(-c2c(C)c(NC(=O)CC(C)(C)C)c(C)c3c2OCC3c2ccc(C(C)C)cc2)c1 (stereo unspecified) | 237 to 239
37 | CCc1c(Oc2cc(C)cc(C)c2)n(COCc2ccccc2)c(=O)[nH]c1=O | 146 to 150
38 | CCC12CCC(=O)C=C1CCC2=O (single isomer, unassigned; (+)) | 56 to 58.5
39 | O=C(NCCCN1CCN(c2cccc(Cl)c2)CC1)NC12CC3CC(CC(C3)C1)C2 | 174 to 175
40 | COc1ccc(CNc2cc3c(Nc4ccc(F)c(Br)c4)ncnc3cn2)cc1 | 181 to 184
41 | CCCc1c(OCCCSc2ccc3c(=O)cc(C(=O)O)[nH]c3c2CCC)ccc(C(C)=O)c1O | 192 to 194
42 | O=C(O)c1ccc(-c2nc(-c3ccc(Cl)cc3)no2)c([N+](=O)[O-])c1 | 257 to 258
43 | CCc1c2s[nH]c(=O)c2c(=O)n2ccc(N3CCC(N(C)C)C3)cc12 (stereo unspecified) | 217 to 219
44 | O=c1[nH][nH]c(=O)c2c(O)c3cc([N+](=O)[O-])ccc3nc12 | 264
45 | O=C(CCc1cccnc1)NCCCCC1CCN(C(c2ccccc2)c2ccccc2)CC1 | 139
46 | C#CCn1c(-c2ccccc2)nc(C(F)(F)F)c(CC)c1=O | 111 to 114
47 | COc1cc(Nc2nc3cccc(-c4ccc(NC(C)=O)cc4)c3o2)cc(OC)c1OC | 265 to 270
48 | CC(CN1CCCCC1)Nc1ccnc2cc(Cl)ccc12 (racemic) | 168 to 171

Row | Structure (SMILES) | melting point [°C]
49 | CN(CC(=O)Nc1ccc(Cl)cc1)C(=O)OC(C)(C)C | 126 to 128
50 | O=C(Nc1ccc(-c2ncc(-c3ccc(NC(=O)C4CCCCCC4)cc3)[nH]2)cc1)c1ccc(Cl)cc1 | 325 to 327
51 | COC(=O)CC(O)(c1ccccc1)c1ccc2nc(N)n(S(=O)(=O)C(C)C)c2c1 (stereo unspecified) | 147 to 149
52 | O=C(c1ccc(O)cc1)c1ccc(OCCO)cc1 | 146 to 147
53 | COc1ccc(C2=CC(C3CCN(c4ncnc5c4cnn5C)CC3)C(=O)C3CC=CCC23)cc1OC (stereo unspecified) | 193 to 194
54 | CCOC(=O)NC1CCN(c2ncnc3cc(OC)c(OC)cc23)CC1 | 179 to 181
55 | CCCC1(CCC)c2ccccc2-c2ccc(O)cc21 | 116 to 117
56 | CC(C)CNS(=O)(=O)c1cccc(NC(=O)c2cnn3c(C(F)(F)F)cc(-c4ccc(C(F)(F)F)cc4)nc23)c1 | 205
57 | COc1cc(OC)nc(Oc2cccc3c2C(=O)SC3C)n1 (stereo unspecified) | 157 to 159
58 | Cc1[nH]c(=O)[nH]c1C(N)=O | > 300
59 | CCn1ncc2c1ncc1c(SC)nc3cc(C)nn3c12 | 168 to 169
60 | CC(C)(C)c1ccc(S(=O)(=O)N2c3ccccc3C[C@H]2C(=O)NCc2ccc([N+](=O)[O-])cc2)cc1 | 75 to 80
61 | OC[C@@H]1CC[C@H](CO)O1 | 128 to 129
62 | CN(C)C=C(C1=NCCCS1)[N+](=O)[O-] | 168 to 170
63 | O=c1[nH]c2ccc(Br)cc2cc1Cc1ccccc1 | 263
64 | OC1CSC(Oc2cc(-c3cccnc3)ccc2F)C(O)C1O (stereo unspecified) | 100
65 | O=C1NC(=O)c2cc(NC3CCCCC3)c(NC3CCCCC3)cc21 | 170 to 175
66 | COc1cc(Nc2c(C#N)cnc3cc(I)c(OC)cc23)c(Cl)cc1Cl | 253 to 254
67 | C1=C(c2ccccc2)CSS1 | 122 to 124
68 | CCCC(=O)C1=C(O)CC(c2c(C)c(C)c(C)c3c2OCC3)CC1=O (stereo unspecified) | 140
69 | Cc1ccc(Nc2nc(-c3cc(-c4ccccc4)no3)cs2)nc1 | 224 to 227
70 | OC(c1ccc(Br)cc1)(c1ccc(Br)cc1)c1ncc[nH]1 | 192 to 194
71 | N#CC(=CNc1ccccc1)Cc1ccc2c(c1)OCO2 | 150 to 151

— a melting point compilation (Tetko et al.; mined from patent text by program, amines drawn as free bases though some values may be those of a salt)
